In the supplement of paper PMC11208160:

Assay: recombinant UMI read abundance after kanamycin selection (control-corrected) (log10(CPM+1)); higher = more efficient recombination; extreme values may be limits of the assay; sequences stand for … in AGTGCAGAGAAAATCGGCCAGTTTTCTCTGCCTGCAGTCCGCATGCCGTGGGACCCCTTGGGTTCTAACCTGTTGCCTAGATTTATGCAGCGGACTGCCTTTCTCCCAAAGTGATAAACCGG…AGGTTGGTTTCACT; site = the 11-nt donor
How it was run: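 In a pooled Escherichia coli screen for the IS621 bridge recombinase, donor and donor-binding-loop pairs were each placed with a 12-nt UMI on a plasmid bearing a promoterless kanamycin gene. This library was co-electroporated with a target plasmid encoding a fixed target and T7-inducible recombinase, and cells were plated either on IPTG (0.07 mM) plus kanamycin or without selection, in two replicates each. Recombinant UMIs were PCR-amplified across the donor–target junction and sequenced, and counts were converted to CPM, averaged over replicates, scaled by control-derived factors and reported as log10(CPM+1).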

Row | Sequence | recombinant UMI read abundance (log10)
1 | CAAGTCCCATGGACCGGTTTTCCCGGTAATCCGTATTTGGG (site CAAGTCACTCC) | 0.0127
2 | CAAGTCCCATGGACCGGTTTTCCCGGTAATCCGTATTTGGG (site CAAGTCCCTCC) | 0.00917
3 | CAAGTCCCATGGACCGGTTTTCCCGGTAATCCGTATTTGGG (site CAAGTCGCTCC) | 0.0161
4 | CAAGTCCCATGGACCGGTTTTCCCGGTAATCCGTATTTGGG (site CAAGTCTCTCC) | 0.025
5 | CAAGTGCCATGGACCGGTTTTCCCGGTAATCCGTATTTGTG (site CAAGAGCCTCA) | 0.354
6 | CAAGTGCCATGGACCGGTTTTCCCGGTAATCCGTATTTGTG (site CAAGCGCCTCA) | 0.389
7 | CAAGTGCCATGGACCGGTTTTCCCGGTAATCCGTATTTGTG (site CAAGGGCCTCA) | 0.21
8 | CAAGTGCCATGGACCGGTTTTCCCGGTAATCCGTATTTGTG (site CAAGTGCCTCA) | 0.662
9 | CAATCGACATGGACCGGTTTTCCCGGTAATCCGTATTTGGG (site CAATCGACTCC) | 0.0993
10 | CAATCGACATGGACCGGTTTTCCCGGTAATCCGTATTTGGG (site CACTCGACTCC) | 0.335
11 | CAATCGACATGGACCGGTTTTCCCGGTAATCCGTATTTGGG (site CAGTCGACTCC) | 0
12 | CAATCGACATGGACCGGTTTTCCCGGTAATCCGTATTTGGG (site CATTCGACTCC) | 0.0172
13 | CAATCGACATGGACCGGTTTTCCCGGTAATCCGTATTTGTT (site CAATCGACTAA) | 0.347
14 | CAATCGACATGGACCGGTTTTCCCGGTAATCCGTATTTGTT (site CCATCGACTAA) | 0.0214
15 | CAATCGACATGGACCGGTTTTCCCGGTAATCCGTATTTGTT (site CGATCGACTAA) | 0.0271
16 | CAATCGACATGGACCGGTTTTCCCGGTAATCCGTATTTGTT (site CTATCGACTAA) | 0.0699
17 | CAATGCTCATGGACCGGTTTTCCCGGTAATCCGTATTTGAA (site AAATGCTCTTT) | 0.129
18 | CAATGCTCATGGACCGGTTTTCCCGGTAATCCGTATTTGAA (site CAAAGCTCTTT) | 0.393
19 | CAATGCTCATGGACCGGTTTTCCCGGTAATCCGTATTTGAA (site CAACGCTCTTT) | 1.58
20 | CAATGCTCATGGACCGGTTTTCCCGGTAATCCGTATTTGAA (site CAAGGCTCTTT) | 0.0098
21 | CAATGCTCATGGACCGGTTTTCCCGGTAATCCGTATTTGAA (site CAATACTCTTT) | 1.94
22 | CAATGCTCATGGACCGGTTTTCCCGGTAATCCGTATTTGAA (site CAATCCTCTTT) | 0.0831
23 | CAATGCTCATGGACCGGTTTTCCCGGTAATCCGTATTTGAA (site CAATGATCTTT) | 0.389
24 | CAATGCTCATGGACCGGTTTTCCCGGTAATCCGTATTTGAA (site CAATGCACTTT) | 0.182
25 | CAATGCTCATGGACCGGTTTTCCCGGTAATCCGTATTTGAA (site CAATGCCCTTT) | 1.25

Row | Sequence | recombinant UMI read abundance (log10)
26 | CAATGCTCATGGACCGGTTTTCCCGGTAATCCGTATTTGAA (site CAATGCGCTTT) | 0.0142
27 | CAATGCTCATGGACCGGTTTTCCCGGTAATCCGTATTTGAA (site CAATGCTCTAT) | 1.03
28 | CAATGCTCATGGACCGGTTTTCCCGGTAATCCGTATTTGAA (site CAATGCTCTCT) | 0.924
29 | CAATGCTCATGGACCGGTTTTCCCGGTAATCCGTATTTGAA (site CAATGCTCTGT) | 0.818
30 | CAATGCTCATGGACCGGTTTTCCCGGTAATCCGTATTTGAA (site CAATGCTCTTA) | 0.908
31 | CAATGCTCATGGACCGGTTTTCCCGGTAATCCGTATTTGAA (site CAATGCTCTTC) | 0.687
32 | CAATGCTCATGGACCGGTTTTCCCGGTAATCCGTATTTGAA (site CAATGCTCTTG) | 0.554
33 | CAATGCTCATGGACCGGTTTTCCCGGTAATCCGTATTTGAA (site CAATGCTCTTT) | 2.57
34 | CAATGCTCATGGACCGGTTTTCCCGGTAATCCGTATTTGAA (site CAATGGTCTTT) | 0.0124
35 | CAATGCTCATGGACCGGTTTTCCCGGTAATCCGTATTTGAA (site CAATGTTCTTT) | 0
36 | CAATGCTCATGGACCGGTTTTCCCGGTAATCCGTATTTGAA (site CAATTCTCTTT) | 0
37 | CAATGCTCATGGACCGGTTTTCCCGGTAATCCGTATTTGAA (site CACTGCTCTTT) | 0.0585
38 | CAATGCTCATGGACCGGTTTTCCCGGTAATCCGTATTTGAA (site CAGTGCTCTTT) | 0.102
39 | CAATGCTCATGGACCGGTTTTCCCGGTAATCCGTATTTGAA (site CATTGCTCTTT) | 0.408
40 | CAATGCTCATGGACCGGTTTTCCCGGTAATCCGTATTTGAA (site CCATGCTCTTT) | 0.461
41 | CAATGCTCATGGACCGGTTTTCCCGGTAATCCGTATTTGAA (site CGATGCTCTTT) | 0.0125
42 | CAATGCTCATGGACCGGTTTTCCCGGTAATCCGTATTTGAA (site CTATGCTCTTT) | 0.217
43 | CAATGCTCATGGACCGGTTTTCCCGGTAATCCGTATTTGAA (site GAATGCTCTTT) | 0.00437
44 | CAATGCTCATGGACCGGTTTTCCCGGTAATCCGTATTTGAA (site TAATGCTCTTT) | 0.0133
45 | CAATGCTCATGGACCGGTTTTCCCGGTAATCCGTATTTGTA (site CAATGCTCTTA) | 3.1
46 | CAATGCTCATGGACCGGTTTTCCCGGTAATCCGTATTTGTA (site CAATGCTCTTC) | 0.746
47 | CAATGCTCATGGACCGGTTTTCCCGGTAATCCGTATTTGTA (site CAATGCTCTTG) | 2.25
48 | CAATGCTCATGGACCGGTTTTCCCGGTAATCCGTATTTGTA (site CAATGCTCTTT) | 1.55
49 | CAATTCCCATGGACCGGTTTTCCCGGTAATCCGTATTTGAT (site CAATTCCCTAA) | 0.00345
50 | CAATTCCCATGGACCGGTTTTCCCGGTAATCCGTATTTGAT (site CAATTCCCTAC) | 0

Row | Sequence | recombinant UMI read abundance (log10)
51 | CAATTCCCATGGACCGGTTTTCCCGGTAATCCGTATTTGAT (site CAATTCCCTAG) | 0
52 | CAATTCCCATGGACCGGTTTTCCCGGTAATCCGTATTTGAT (site CAATTCCCTAT) | 1.7
53 | CAATTCCCATGGACCGGTTTTCCCGGTAATCCGTATTTGCG (site CAATTCCCTAG) | 1.26
54 | CAATTCCCATGGACCGGTTTTCCCGGTAATCCGTATTTGCG (site CAATTCCCTCG) | 2.33
55 | CAATTCCCATGGACCGGTTTTCCCGGTAATCCGTATTTGCG (site CAATTCCCTGG) | 0
56 | CAATTCCCATGGACCGGTTTTCCCGGTAATCCGTATTTGCG (site CAATTCCCTTG) | 1.67
57 | CAATTGCCATGGACCGGTTTTCCCGGTAATCCGTATTTGCT (site CAATTACCTAG) | 0
58 | CAATTGCCATGGACCGGTTTTCCCGGTAATCCGTATTTGCT (site CAATTCCCTAG) | 0
59 | CAATTGCCATGGACCGGTTTTCCCGGTAATCCGTATTTGCT (site CAATTGCCTAG) | 1.32
60 | CAATTGCCATGGACCGGTTTTCCCGGTAATCCGTATTTGCT (site CAATTTCCTAG) | 0
61 | CACAAAACATGGACCGGTTTTCCCGGTAATCCGTATTTGGC (site CACAAAACTGC) | 1.79
62 | CACAAACCATGGACCGGTTTTCCCGGTAATCCGTATTTGGT (site AACAAACCTAC) | 0
63 | CACAAACCATGGACCGGTTTTCCCGGTAATCCGTATTTGGT (site CACAAACCTAC) | 0
64 | CACAAACCATGGACCGGTTTTCCCGGTAATCCGTATTTGGT (site GACAAACCTAC) | 0
65 | CACAAACCATGGACCGGTTTTCCCGGTAATCCGTATTTGGT (site TACAAACCTAC) | 0
66 | CACACATCATGGACCGGTTTTCCCGGTAATCCGTATTTGCC (site CACACATCTGG) | 2.15
67 | CACACCTCATGGACCGGTTTTCCCGGTAATCCGTATTTGGC (site CACACCTCTGC) | 3.07
68 | CACACTGCATGGACCGGTTTTCCCGGTAATCCGTATTTGTA (site CACACTGCTTA) | 1.72
69 | CACAGATCATGGACCGGTTTTCCCGGTAATCCGTATTTGAT (site CACAGATCTAT) | 2.37
70 | CACATGGCATGGACCGGTTTTCCCGGTAATCCGTATTTGTA (site CACATGGCTTA) | 2.31
71 | CACCAGTCATGGACCGGTTTTCCCGGTAATCCGTATTTGAC (site CACCAGTCTGT) | 0.85
72 | CACCGTACATGGACCGGTTTTCCCGGTAATCCGTATTTGCG (site CACCGTACTCG) | 1.35
73 | CACCGTCCATGGACCGGTTTTCCCGGTAATCCGTATTTGAT (site AACCGTCCTAT) | 0.117
74 | CACCGTCCATGGACCGGTTTTCCCGGTAATCCGTATTTGAT (site CACCGTCCTAT) | 1.03
75 | CACCGTCCATGGACCGGTTTTCCCGGTAATCCGTATTTGAT (site GACCGTCCTAT) | 0.00326
